Test results from US5208227A, “Method, compositions, and compounds for modulating brain excitability” (priority 1991, dated 1993).
Read-outs that look alike come from different tables or passages of the source.

Experiments:
[1] = test system: GABA/benzodiazepine receptor-chloride ionopore complex (GBR complex); assay: modulation (inhibition) of [35S]TBPS binding; design: species or system rat (male Sprague-Dawley); MAXIMAL INHIBITION: unit not given here; settings: for MAXIMAL INHIBITION: [35S]TBPS binding; for MAXIMAL INHIBITION / CONTROL IC50 / IC50 / +5 μM GABA IC50: rat cerebral cortex; for CONTROL IC50 / IC50 / +5 μM GABA IC50: inhibition of 2 nM [35S]TBPS binding
Description: These procedures were performed as follows:
In these FIGS, (.circle.) represents control without bicuculline; represents 0.5 micromolar bicuculline; (.quadrature.) represents 1.0 micromolar bicuculline; represents 2.0 micromolar bicuculline; and (Δ) represents 3.0 micromolar bicuculline.

progesterone receptor = target: T1, progesterone receptor (Rattus norvegicus, UniProt Q63449); assay: [3H]R5020 binding to the progesterone receptor in rat uterus; settings: FIG. 5
T1 sequence (Q63449 1-923): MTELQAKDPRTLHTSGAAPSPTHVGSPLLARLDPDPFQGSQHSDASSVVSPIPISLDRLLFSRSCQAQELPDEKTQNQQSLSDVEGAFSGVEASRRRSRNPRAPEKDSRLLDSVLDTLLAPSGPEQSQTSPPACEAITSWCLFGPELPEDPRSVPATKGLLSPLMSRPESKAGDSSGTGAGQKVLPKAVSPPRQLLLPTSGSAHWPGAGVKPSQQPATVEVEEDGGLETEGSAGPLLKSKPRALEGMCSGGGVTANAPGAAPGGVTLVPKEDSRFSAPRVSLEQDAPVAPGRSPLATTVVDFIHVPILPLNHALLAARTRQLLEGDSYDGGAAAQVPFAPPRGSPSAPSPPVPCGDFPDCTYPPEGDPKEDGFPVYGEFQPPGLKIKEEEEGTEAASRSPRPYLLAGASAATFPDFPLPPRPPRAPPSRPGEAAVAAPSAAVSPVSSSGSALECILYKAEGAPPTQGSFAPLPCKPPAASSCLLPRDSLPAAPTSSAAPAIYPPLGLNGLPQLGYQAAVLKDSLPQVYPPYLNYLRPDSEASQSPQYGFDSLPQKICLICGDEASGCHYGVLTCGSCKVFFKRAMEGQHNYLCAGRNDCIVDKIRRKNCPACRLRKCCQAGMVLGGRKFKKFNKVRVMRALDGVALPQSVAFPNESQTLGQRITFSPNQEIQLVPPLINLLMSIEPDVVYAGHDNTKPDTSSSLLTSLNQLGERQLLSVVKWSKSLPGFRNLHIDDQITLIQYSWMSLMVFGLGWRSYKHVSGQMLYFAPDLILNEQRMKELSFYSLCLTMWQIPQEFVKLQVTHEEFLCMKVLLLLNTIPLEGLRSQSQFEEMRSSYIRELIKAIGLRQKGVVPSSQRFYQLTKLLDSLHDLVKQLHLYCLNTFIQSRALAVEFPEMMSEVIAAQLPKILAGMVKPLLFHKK
Description: The data plotted in FIG. 5 were obtained by performing assays in accordance with the procedures outlined above to determine the effect of progesterone metabolites and the progestin R5020 on the binding of [^3 H]R5020 to the progesterone receptor in rat uterus. All points on the plot of FIG. 5 represent the mean of triplicate determinations. The following compounds are those listed in FIG. 5: 5-alpha-pregnan-3-alpha-ol-20-one (DHP), 5-alpha-pregnan-3-alpha,21-diol-20-one (Th-DOC), and 5-beta-pregnane-3-alpha,20 diol (5 BETA).

[2] = test system: maximal electroshock (tonic component) in mice; design: unit not given here; settings: literature data; cited from earlier work
[3] = test system: picrotoxin-induced convulsions in mice; design: key: NP: no protection; settings: cited from earlier work
[4] = test system: (+)bicuculline-induced seizures in mice; design: key: NP: no protection; settings: cited from earlier work
[5] = test system: metrazol-induced convulsions in mice; design: key: NP: no protection; settings: cited from earlier work
mice [6] = settings: literature data; cited from earlier work
mice [7] = test system: mice; design: unit not given beside the values; settings: literature data; cited from earlier work
[8] = test system: strychnine-induced convulsions in mice; design: key to STR (strychnine) ED50: NP: no protection; settings: cited from earlier work
[9] = test system: GBR complex ([35S]TBPS site); assay: dissociation kinetics of [35S]TBPS in cortical P2 homogenates; format: binding, rat
Description: An assay was performed to determine the effect of pentobarbital on the dissociation kinetics of [^35 S]TBPS in rat cerebral cortical membranes. This assay was performed in accordance with the procedures outlined above. […] Dissociation of bound [^35 S]TBPS was initiated by 2 micromolar TBPS in all cases.

[10] = test system: premenstrual syndrome (PMS), PND, catamenial epilepsy patients; settings: cited from earlier work
[11] = read-out: +5 μM GABA IC50, +5 μM GABA
[12] = no added GABA (control), read-out: CONTROL IC50
[13] = chemical convulsant administered i.v., Worms et al.

## C[C@]12C[C@H](O)[C@H]3[C@@H](CCC4=CC(=O)CC[C@@]43C)[C@@H]1CC[C@@H]2C(=O)CO [4-PREGNEN-11β,21- DIOL-3,20-DIONE]
[1]
  MAXIMAL INHIBITION: 21
[1]; no added GABA (control)
  CONTROL IC50: INACTIVE
[1]; [11]
  IC50: > 100 µM

## CC(=O)[C@H]1CC[C@H]2[C@@H]3CC=C4C[C@@H](O)CC[C@]4(C)[C@H]3CC[C@]12C [5-PREGNAN-3β-OL- 20-ONE (PREGNENOLONE), 5-PREGNAN-3β-OL- 20-ONE]
[1]
  MAXIMAL INHIBITION: 30
[1]; no added GABA (control)
  CONTROL IC50: INACTIVE
[1]; [11]
  IC50: > 100 µM

## C[C@]12CC[C@@H](O)C[C@@H]1CC[C@@H]1[C@@H]2CC[C@]2(C)[C@@H](C(=O)CO)CC[C@@H]12 [5-alpha-pregnan-3-alpha,21-diol-20-one]
Progesterone receptor
  affinity for the progesterone receptor: lack of affinity

## CC(O)[C@H]1CC[C@H]2[C@@H]3CC[C@@H]4C[C@H](O)CC[C@]4(C)[C@H]3CC[C@]12C (stereo partly drawn) [5-beta-pregnane-3-alpha,20 diol (5 BETA), 5-beta-pregnane-3-alpha,20 diol]
Progesterone receptor
  affinity for the progesterone receptor: lack of affinity

## C[C@]12CC[C@@H](O)C[C@@H]1CC[C@@H]1[C@@H]2CC[C@]2(C)[C@@H](O)CC[C@@H]12 [5α-ANDROSTAN-3α, 17β-DIOL]
[1]
  MAXIMAL INHIBITION: 100

## C[C@]12CCC(=O)C[C@@H]1CC[C@@H]1[C@@H]2CC[C@]2(C)[C@@H](O)CC[C@@H]12 [5α-ANDROSTAN-17β- OL-3-ONE]
[1]
  MAXIMAL INHIBITION: 52
[1]; [12]
  IC50: > 100 µM

## CC(O)[C@H]1CC[C@H]2[C@@H]3CC[C@H]4C[C@H](O)CC[C@]4(C)[C@H]3CC[C@]12C (stereo partly drawn) [5α-PREGNAN-3α,20- DIOL ([…]), 5α-PREGNAN-3α,20- DIOL]
[1]
  MAXIMAL INHIBITION: 52
[1]; [12]
  IC50: 0.359 µM
[1]; [11]
  IC50: 0.082 µM

## C[C@]12CC[C@@H](O)C[C@@H]1CC[C@H]1[C@@H]3CC[C@H](C(=O)CO)[C@@]3(C)CC(=O)[C@@H]12 [5α-PREGNAN-3α-21- DIOL-11,20-DIONE]
[1]; [12]
  IC50: > 100 µM

## CC(=O)[C@H]1CC[C@H]2[C@@H]3CC[C@H]4C[C@@H](O)CC[C@]4(C)[C@H]3CC[C@]12C [5α-PREGNAN-3β-OL- 20-ONE]
[1]
  MAXIMAL INHIBITION: 33
[1]; no added GABA (control)
  CONTROL IC50: INACTIVE
[1]; [11]
  IC50: > 100 µM

## C[C@]12CC[C@@H]3c4ccc(O)cc4CC[C@H]3[C@@H]1CC[C@@H]2O [17β-ESTRADIOL]
[1]
  MAXIMAL INHIBITION: 0
[1]; +5 μM GABA
  +5 μM GABA IC50: INACTIVE
[1]; no added GABA (control)
  CONTROL IC50: INACTIVE

## CC(C)CCC[C@@H](C)[C@H]1CC[C@H]2[C@@H]3CC=C4C[C@@H](O)CC[C@]4(C)[C@H]3CC[C@]12C [CHOLESTEROL]
[1]
  MAXIMAL INHIBITION: 0
[1]; +5 μM GABA
  +5 μM GABA IC50: INACTIVE
[1]; no added GABA (control)
  CONTROL IC50: INACTIVE

## O=C1CN=C(c2ccccc2Cl)c2cc([N+](=O)[O-])ccc2N1 [Clonazepam]
[2]
  MES (maximal electroshock) ED50: 93
[3]; Swinyard & Woodhead
  PICRO (picrotoxin) ED50: 0.043
[4]; Swinyard & Woodhead
  BIC (bicuculline) ED50: 0.0086
[5]; Swinyard & Woodhead
  MTZ (metrazol) ED50: 0.009
Mice [6]
  Rotorod (RR) ED50: 0.184
Mice [7]
  LD50: > 6000
[8]; Swinyard & Woodhead
  STR (strychnine) ED50: NP

## NCCCC(=O)O [GABA, gamma-aminobutyric acid]
[1]; (+)-bicuculline 0.5-3.0 micromolar, FIGS. 1A and 1B
  shift in dose-response curve for [35S]TBPS binding induced by (+)-bicuculline: classical parallel shift

## CCCC(C)C1(CC)C(=O)NC(=O)NC1=O (stereo not drawn) [Na pentobarbital]
[9]; (**P < 0.01 vs control), alphaxalone 300 nM, 3a-OH-DHP 20 nM
  Total percentage of specific sites, rapidly dissociating (R): 48 ± 6 percentage
[9]; (*P < 0.05 vs control), alphaxalone 300 nM, 3a-OH-DHP 20 nM
  Total percentage of specific sites, slowly dissociating (S): 61 ± 6 percentage
[9]; [35S]TBPS dissociation, alphaxalone 300 nM, 3a-OH-DHP 20 nM
  k-1, rapidly dissociating component (R): 0.158 min⁻¹
[9]; [35S]TBPS dissociation, pentobarbital 30 nM [sic], alphaxalone 300 nM, 3a-OH-DHP 20 nM
  k-1, slowly dissociating component (S): 0.0186 min⁻¹
[9]; pentobarbital 30 micromolar, alphaxalone 300 nanomolar, 5-alpha-pregnan-3-alpha-hydroxy-20-one 20 nanomolar
  effect on dissociation mechanism/kinetics of [35S]TBPS (in words): induces a biphasic dissociation mechanism

## CC(=O)[C@H]1CC[C@H]2[C@@H]3CCC4=CC(=O)CC[C@]4(C)[C@H]3CC[C@]12C [PROGESTERONE]
[10]; Maddocks et al.
  dose-response relationship in the treatment of PMS: no dose-response relationship exists
[10]; literature
  clinical effectiveness in PMS, PND, catamenial epilepsy: not consistently effective
[1]
  MAXIMAL INHIBITION: 100
[1]; in vitro
  potency/efficacy/affinity at the GBR complex (in words): very low potency
[1]; [12]
  IC50: > 100 µM

## CCC1(c2ccccc2)C(=O)NC(=O)NC1=O [Phenobarbital]
[2]
  MES (maximal electroshock) ED50: 22
[3]; Swinyard & Woodhead
  PICRO (picrotoxin) ED50: 28
[4]; Swinyard & Woodhead
  BIC (bicuculline) ED50: 38
[5]; Swinyard & Woodhead
  MTZ (metrazol) ED50: 13
Mice [6]
  Rotorod (RR) ED50: 69
Mice [7]
  LD50: 265
[8]; Swinyard & Woodhead
  STR (strychnine) ED50: 95

## O=C1NC(=O)C(c2ccccc2)(c2ccccc2)N1 [Phenytoin]
[3]; Swinyard & Woodhead
  PICRO (picrotoxin) ED50: NP
[4]; Swinyard & Woodhead
  BIC (bicuculline) ED50: NP
[5]; Swinyard & Woodhead
  MTZ (metrazol) ED50: NP
Mice [7]
  LD50: 230
[8]; at 55-100 mg/kg
  Maximum protection (strychnine): 50%

## NC(=O)CCC/N=C(\c1ccc(Cl)cc1)c1cc(F)ccc1O [Progabide]
[2]
  MES (maximal electroshock) ED50: 75
[3]; [13]
  PICRO (picrotoxin) ED50: 105
[4]; [13]
  BIC (bicuculline) ED50: 30
[5]; [13]
  MTZ (metrazol) ED50: 30
Mice [7]
  LD50: 3000
[8]; [13]
  STR (strychnine) ED50: 75

## CCCC(CCC)C(=O)O [Valproate]
[2]
  MES (maximal electroshock) ED50: 272
[3]; Swinyard & Woodhead
  PICRO (picrotoxin) ED50: 387
[4]; Swinyard & Woodhead
  BIC (bicuculline) ED50: 360
[5]; Swinyard & Woodhead
  MTZ (metrazol) ED50: 149
Mice [7]
  LD50: 1105
[8]; Swinyard & Woodhead
  STR (strychnine) ED50: 293
